Measured values published in patent US6620811B2, “Isonicotin- and nicotinamide derivatives of benzothiazoles” (Hoffmann-La Roche Inc., priority 2001, dated 2003).

Biological target: T1, human adenosine A2A receptor (Homo sapiens, UniProt P29274)
T1 construct: expressed in transfected cells; host or cells: CHO cells, semliki forest virus expression system; membrane preparation
Assay: Human adenosine A2A receptor [3H]-SCH-583261 binding assay (SPA, CHO cell membranes)
Conditions: [3H]-SCH-583261 1 nM; membranes of CHO cells expressing the recombinant receptor; Ki by Cheng-Prussoff equation; read-out: hA2 (pKi) (converted)
Procedure: Human Adenosine A2A Receptor
The human adenosine A2A receptor was recombinantly expressed in chinese hamster ovary (CHO) cells using the semliki forest virus expression system. Cells were harvested, washed twice by centrifugation, homogenised and again washed by centrifugation. The final washed membrane pellet was suspended in a Tris (50 mM) buffer containing 120 mM NaCl, 5 mM KCl, 2 mM CaCl2 and 10 mM MgCl2 (pH 7.4) (buffer A). The [^3H]-SCH-583261 (Dionisotti et al., 1997, Br J Pharmacol 121, 353; 1 nM) binding assay was carried out in 96-well plates in the presence of 2.5 μg of membrane protein, 0.5 mg of Ysi-poly-1-lysine SPA beads and 0.1 U adenosine deaminiase in a final volume of 200 μl of buffer A. Non-specific binding was defined using xainthine amine congener (XAC; 2 μM). Compounds were tested at 10 concentrations from 10 μM-0.3 nM. All assays were conducted in duplicate and repeated at least two times. Assay plates were incubated for 1 hour at room temperature before centrifugation and then bound ligand determined using a Packard Topcount scintillation counter. IC50 values were calculated using a non-linear curve fitting program and Ki values calculated using the Cheng-Prussoff equation.

T1 sequence (P29274 whole entry): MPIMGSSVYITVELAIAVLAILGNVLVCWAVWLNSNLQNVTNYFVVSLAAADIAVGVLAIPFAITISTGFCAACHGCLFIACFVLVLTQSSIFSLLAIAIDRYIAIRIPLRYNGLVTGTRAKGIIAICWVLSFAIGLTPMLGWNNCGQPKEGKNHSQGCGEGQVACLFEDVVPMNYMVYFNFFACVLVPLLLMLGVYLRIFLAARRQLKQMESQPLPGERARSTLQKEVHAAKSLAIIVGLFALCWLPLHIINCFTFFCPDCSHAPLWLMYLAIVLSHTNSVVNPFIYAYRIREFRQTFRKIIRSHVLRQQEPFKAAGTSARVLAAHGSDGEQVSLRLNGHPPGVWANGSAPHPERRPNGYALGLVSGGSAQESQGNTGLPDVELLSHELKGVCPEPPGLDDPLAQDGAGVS

Q: With `COc1ccc(N2CCOCC2)c2sc(NC(=O)c3ccnc(OCCN(C)C)c3)nc12` [Example 86, 2-(2-Dimethylamino-ethoxy)-N-(4-methoxy-7-morpholin-4-yl-benzothiazol-2-yl)-isonicotinamide] as the compound, how does the Ki read?
A: The Ki was 0.501 nM.

Q: For `COc1ccc(N2CCOCC2)c2sc(NC(=O)c3ccnc(OCCN4CCOCC4)c3)nc12` [Example 87, N-(4-Methoxy-7-morpholin-4-yl-benzothiazol-2-yl)-2-(2-morpholin-4-yl-ethoxy)-isonicotinamide], which Ki is on record?
A: Its Ki is 0.851 nM.

Q: With `COc1ccc(N2CCOCC2)c2sc(NC(=O)c3ccnc(NCCN(C)C)c3)nc12` [Example 88, 2-(2-Dimethylamino-ethylamino)-N-(4-methoxy-7-morpholin-4-yl-benzothiazol-2-yl)-isonicotinamide] as the compound, how does the Ki read?
A: Its Ki is 0.457 nM.

Q: With `COc1ccc(N2CCOCC2)c2sc(NC(=O)c3ccnc(NC4CCCC4)c3)nc12` [Example 89, 2-Cyclopentylamino-N-(4-methoxy-7-morpholin-4-yl-benzothiazol-2-yl)-isonicotinamide] as the compound, how does the Ki read?
A: The Ki was 1.48 nM.

Q: Which Ki does the source give for `COc1ccc(N2CCOCC2)c2sc(NC(=O)c3ccnc(NC4CCC4)c3)nc12` [Example 90, 2-Cyclobutylamino-N-(4-methoxy-7-morpholin-4-yl-benzothiazol-2-yl)-isonicotinamide] here?
A: The Ki was 1.74 nM.

Q: With `COc1ccc(N2CCOCC2)c2sc(NC(=O)c3ccnc(OCCNC(C)=O)c3)nc12` [Example 92, 2-(2-Acetylamino-ethoxy)-N-(4-methoxy-7-morpholin-4-yl-benzothiazol-2-yl)-isonicotinamide] as the compound, how does the Ki read?
A: Its Ki is 1.58 nM.

Q: With `CCCNc1cc(C(=O)Nc2nc3c(OC)ccc(N4CCOCC4)c3s2)ccn1` [Example 93, N-(4-Methoxy-7-morpholin-4-yl-benzothiazol-2-yl)-2-propylamino-isonicotinamide] as the compound, how does the Ki read?
A: Its Ki is 1.07 nM.

Q: For `CCCN(C)c1cc(C(=O)Nc2nc3c(OC)ccc(N4CCOCC4)c3s2)ccn1` [Example 94, N-(4-Methoxy-7-morpholin-4-yl-benzothiazol-2-yl)-2-(methyl-propyl-amino)-isonicotinamide], which Ki is on record?
A: Its Ki is 1.2 nM.

Q: With `COc1ccc(N2CCOCC2)c2sc(NC(=O)c3ccnc(N(C)C4CCCCC4)c3)nc12` [Example 95, 2-(Cyclohexyl-methyl-amino)-N-(4-methoxy-7-morpholin-4-yl-benzothiazol-2-yl)-isonicotinamide] as the compound, how does the Ki read?
A: The Ki was 1.91 nM.

Q: For `COc1ccc(N2CCOCC2)c2sc(NC(=O)c3ccnc(N(C)Cc4ccccc4)c3)nc12` [Example 96, 2-(Benzyl-methyl-amino)-N-(4-methoxy-7-morpholin-4-yl-benzothiazol-2-yl)-isonicotinamide], which Ki is on record?
A: The Ki was 1.62 nM.

Q: With `COc1ccc(N2CCOCC2)c2sc(NC(=O)c3ccnc(N(C)CCc4ccccc4)c3)nc12` [Example 97, N-(4-Methoxy-7-morpholin-4-yl-benzothiazol-2-yl)-2-(methyl-phenethyl-amino)-isonicotinamide] as the compound, how does the Ki read?
A: The Ki was 2.24 nM.

Q: With `COc1ccc(N2CCOCC2)c2sc(NC(=O)c3ccnc(N(C)CCN(C)C)c3)nc12` [Example 99, 2-[(2-Dimethylamino-ethyl)-methyl-amino]-N-(4-methoxy-7-morpholin-4-yl-benzothiazol-2-yl)-isonicotinamide] as the compound, how does the Ki read?
A: The Ki was 0.603 nM.

Q: Which Ki does the source give for `COc1ccc(N2CCCCC2)c2sc(NC(=O)c3ccnc(N4CCN(C)CC4)c3)nc12` [Example 100, N-(4-Methoxy-7-piperidin-1-yl-benzothiazol-2-yl)-2-(4-methyl-piperazin-1-yl)-isonicotinamide] here?
A: Its Ki is 1.55 nM.

Q: For `COc1cc(C(=O)Nc2nc3c(OC)ccc(-c4ccccc4)c3s2)ccn1` [Example 101, 2-Methoxy-N-(4-methoxy-7-phenyl-benzothiazol-2-yl)-isonicotinamide], which Ki is on record?
A: Its Ki is 1.26 nM.

Q: Which Ki does the source give for `COc1ccc(N2CCOCC2)c2sc(NC(=O)c3ccnc(CN4CCC(O)CC4)c3)nc12` [Example 102, 2-(4-Hydroxy-piperidin-1-yl-methyl)-N-(4-methoxy-7-morpholin-4-yl-benzothiazol-2-yl)-isonicotinamide] here?
A: Its Ki is 2 nM.

Q: For `CCSCc1cc(C(=O)Nc2nc3c(OC)ccc(N4CCOCC4)c3s2)ccn1` [Example 103, 2-Ethylsulfanylmethyl-N-(4-methoxy-7-morpholin-4-yl-benzothiazol-2-yl)-isonicotinamide], which Ki is on record?
A: Its Ki is 1.58 nM.

Q: Which Ki does the source give for `CCOCCN(C)Cc1cc(C(=O)Nc2nc3c(OC)ccc(N4CCOCC4)c3s2)ccn1` [Example 104, 2-{[(2-Ethoxy-ethyl)-methyl-amino]-methyl}-N-(4-methoxy-7-morpholin-4-yl-benzothiazol-2-yl)-isonicotinamide] here?
A: Its Ki is 3.16 nM.

System: not given
Assay: not given
Conditions: not given

Q: Which melting point does the source give for `COc1ccc(N2CCOCC2)c2sc(NC(=O)c3ccnc(CN4CCC(O)CC4)c3)nc12` [Example 102, 2-(4-Hydroxy-piperidin-1-yl-methyl)-N-(4-methoxy-7-morpholin-4-yl-benzothiazol-2-yl)-isonicotinamide] here?
A: Its melting point is 125 °C.

Q: Which melting point does the source give for `CCSCc1cc(C(=O)Nc2nc3c(OC)ccc(N4CCOCC4)c3s2)ccn1` [Example 103, 2-Ethylsulfanylmethyl-N-(4-methoxy-7-morpholin-4-yl-benzothiazol-2-yl)-isonicotinamide] here?
A: The melting point was 158 to 159 °C.

Q: For `CCOCCN(C)Cc1cc(C(=O)Nc2nc3c(OC)ccc(N4CCOCC4)c3s2)ccn1` [Example 104, 2-{[(2-Ethoxy-ethyl)-methyl-amino]-methyl}-N-(4-methoxy-7-morpholin-4-yl-benzothiazol-2-yl)-isonicotinamide], which melting point is on record?
A: The melting point was 159 to 160 °C.

Q: Which melting point does the source give for `COC[C@@H]1CCCN1Cc1cc(C(=O)Nc2nc3c(OC)ccc(N4CCOCC4)c3s2)ccn1` [Example 105, (S)-2-(2-Methoxymethyl-pyrrolidin-1-ylmethyl)-N-(4-methoxy-7-morpholin-4-yl-benzothiazol-2-yl)-isonicotinamide] here?
A: The melting point was 110 to 113 °C.

Q: With `COC[C@H]1CCN(Cc2cc(C(=O)Nc3nc4c(OC)ccc(N5CCOCC5)c4s3)ccn2)C1` [Example 106, (S)-2-(3-Methoxymethyl-pyrrolidin-1-ylmethyl)-N-(4-methoxy-7-morpholin-4-yl-benzothiazol-2-yl)-isonicotinamide] as the compound, how does the melting point read?
A: The melting point was 93 to 96 °C.

Q: Which melting point does the source give for `COc1ccc(N2CCOCC2)c2sc(NC(=O)c3ccnc(Cn4ccnc4C)c3)nc12` [Example 107, N-(4-Methoxy-7-morpholin-4-yl-benzothiazol-2-yl)-2-(2-methyl-imidazol-1-ylmethyl)-isonicotinamide] here?
A: The melting point was 264 to 265 °C.

Q: With `COc1ccc(N2CCOCC2)c2sc(NC(=O)c3ccnc(CN(C)C(C)=O)c3)nc12` [Example 108, 2-[(Acetyl-methyl-amino)-methyl]-N-(4-methoxy-7-morpholin-4-yl-benzothiazol-2-yl)-isonicotinamide] as the compound, how does the melting point read?
A: Its melting point is 228 to 230 °C.
